{
  "source": "patent US20150276751A1",
  "about": "“REAGENT FOR IMAGING INTRACELLULAR ACETYLATION” (JAPAN SCIENCE AND TECHNOLOGY AGENCY, priority 2012, published 2015)",
  "key": {"[1]": {"experiment": "Absorption and fluorescence properties of the rhodamine derivative before and after acetylation", "type": "physicochemical", "details": "for fluorescence maximum: excitation at 550 nm; for absorption maximum / molar absorption coefficient ε at absorption maximum: in PBS (medium given for compound 3); for fluorescence quantum yield: in PBS, rhodamine B as control", "text": "The compound 3 (RH—NH2) obtained had the absorption maximum (ε=71400 M^−1cm^−1) at 546 nm in PBS, fluorescence maximum at 570 nm with excitation at 550 nm, and fluorescence quantum yield of 4.9×10^−4 as measured in PBS using rhodamine B as a control. The acetylated compound 4 (RH—NHAc) had the absorption maximum (ε=35500 M^−1cm^−1) at 553 nm, fluorescence maximum at 572 nm with excitation at 550 nm, and fluorescence quantum yield of 0.12."}, "[2]": {"experiment": "Acetylation of compound 3 by compound 6 (acetyl-CoA analogue) with tributylphosphine in PBS", "details": "compound 3 1 μM, tributylphosphine 10 mM, PBS pH 7.4, 1% DMSO, 25° C., ex 550 nm, em 575 nm", "protocol": "The compound 3 (1 μM) was mixed with tributylphosphine (10 mM) as the acylation catalyst or acylation reaction-promoting agent, the compound 6 was added 1 minute afterward, and advance of the acetylation was measured over time at 25° C. in PBS (pH 7.4, 1% DMSO) in the same manner as that of Example 2. Fluorescence of 575 nm was measured with excitation at 550 nm. […] Correlation was observed between the fluorescence intensity and the concentration of the acetylating agent 1 minute after the addition of the acetylating agent (FIG. 2)."}, "HeLa cells [3]": {"test_system": "HeLa cells", "experiment": "Staining and mitochondrial localization in HeLa cells (double staining with TagCFP-Mito)", "type": "cell-based", "protocol": "In order to visualize an intracellular acetylation, the following experiment was conducted by using the compound 3 as the rhodamine derivative. It is known that a positively charged rhodamine derivative structure such as tetramethylrhodamine migrates into cells and localizes in mitochondria (J. Circ. Res., 95, pp. 239-252, 2004; J. Biol. Chem., 264, pp. 8171-8178, 1989; Plos. One., 6, e23684, 2011; as especially for localization of 5-aminorhodamine derivatives in mitochondria, see, GB2283744 and U.S. Pat. No. 5,686,261). The compound 3 (10 μM) was allowed to act on the HeLa cells at 37° C. for 30 minutes in the Hanks' balanced salt solution (HBSS, 137 mM NaCl, 5.4 mM KCl, 1.3 mM CaCl2, 0.5 mM MgCl2, 0.4 mM MgSO4, 0.3 mM Na2HPO4, 0.4 mM KH2PO4, 4.2 mM NaHCO3, 5.6 mM D-glucose, 5 mM HEPES, adjusted to pH 7.4 with NaOH), the cells were washed twice with HBSS, and then fluorescence was measured.\nThe localization in the mitochondria of the HeLa cells was visualized by expression of TagCFP-Mito, which is a cyan fluorescent protein, and thereby confirmed. The HeLa cells were transfected with the pTagCFP-Mito vector (Evrogen) using Lipofectamine LTX (Invitrogen), and fluorescence was measured from 24 hours thereafter. The compound 3 was excited at 559 nm, and fluorescence of 580 to 680 nm was measured. TagCFP-Mito was excited at 440 nm, and fluorescence of 460 to 500 nm was measured. […]"}, "HeLa cells [4]": {"test_system": "HeLa cells", "experiment": "Visualization of intracellular acetylation in HeLa cells by fluorescence enhancement", "type": "cell-based", "protocol": "The acylation catalyst was added at the time point of 2 minutes, and N-methoxydiacetamide (NMD, 10 mM) was added as an acetylating agent at the time point of 7 minutes. Enhancement of the fluorescence intensity (F/F0) was calculated with an excitation wavelength of 550 nm and a fluorescence wavelength of 575 nm as an average of the results obtained from five cells. […] FIGS. 4, (c), (d), and (e) show color images of the HeLa cell after 1 minute, 5 minutes, and 10 minutes, respectively.\nIn view of the results of the model acetylation shown in Example 3, it is considered that enhancement of the intracellular fluorescence intensity was originated in acetylation advanced by physiological acetyl-CoA in the inside of mitochondria. […] Therefore, advance of the intracellular acetylation was successfully visualized by the compound 3 together with the physiological acetyl-CoA and the additionally added acetylating agent. It is known that the acetyl-CoA concentration in mitochondria is higher than the average intracellular acetyl-CoA concentration (J. Gen., Microbiol., 134, pp. 2249-2253, 1988), and the aforementioned results are consistent with this finding."}, "[5]": {"experiment": "Acetylation of compound 3 by N-methoxydiacetamide in PBS with acylation catalyst, fluorescence change over time", "details": "for increase in fluorescence intensity over time vs. no catalyst: PBS pH 7.4, 1% DMSO, 25° C.", "protocol": "The compound 3 (1 μM) and an acylation catalyst or acylation reaction-promoting agent (10 mM) were dissolved in PBS (pH 7.4, containing 1% DMSO), N-methoxydiacetamide (NMD, 0.1M) was added as an acetylating agent 1 minute afterward, and change of fluorescence was measured over time at 25° C."}, "[6]": {"details": "compound 3 1 μM, catalyst 10 mM, NMD 0.1M"}},
  "data": [
    {"molecule": "CN(C)c1ccc2c(-c3ccc(N)cc3)c3ccc(=[N+](C)C)cc-3oc2c1.O=C([O-])C(F)(F)F", "note": "[compound 3, N-(9-(4-Aminophenyl)-6-(dimethylamino)-3H-xanthen-3-ylidene)-N-methylmethanaminium trifluoroacetate]", "values": [
      {"measurement": "fluorescence maximum", "setting": "[1]", "result": 570, "unit": "nm"},
      {"measurement": "absorption maximum", "setting": "[1]", "result": 546, "unit": "nm"},
      {"measurement": "molar absorption coefficient ε at absorption maximum", "setting": "[1]", "result": 71400, "unit": "M⁻¹ cm⁻¹"},
      {"measurement": "fluorescence quantum yield", "setting": "[1]", "result": "4.9×10^−4"},
      {"measurement": "increase of fluorescence on acetylation with compound 6", "setting": "[2]", "result": "Rapid increase of fluorescence was obtained"},
      {"measurement": "intracellular localization (staining image)", "setting": "HeLa cells [3]; 10 μM, 37° C., 30 minutes, HBSS", "result": "localization of the compound in the mitochondria"},
      {"measurement": "consistency of fluorescence image with TagCFP-Mito image", "setting": "HeLa cells [3]; ex 559 nm, em 580 to 680 nm, HeLa cells transfected with pTagCFP-Mito", "result": "well consistent with the fluorescence image of the cyan fluorescence protein expressed in the mitochondria"},
      {"measurement": "enhancement of fluorescence intensity over time, no catalyst", "setting": "HeLa cells [4]; 37° C., absence of acylation catalyst or reaction-promoting agent", "result": "enhancement of fluorescence intensity was not observed"},
      {"measurement": "fluorescence intensity after further adding N-methoxydiacetamide", "setting": "HeLa cells [4]; NMD 10 mM added at 7 minutes, after tributylphosphine 5 mM", "result": "the fluorescence intensity was further enhanced"},
      {"measurement": "enhancement of intracellular fluorescence intensity with tributylphosphine", "setting": "HeLa cells [4]; compound 3 10 μM, tributylphosphine 5 mM added to medium, 37° C.", "result": "enhancement of intracellular fluorescence intensity was observed"}
    ]},
    {"molecule": "CC(=O)Nc1ccc(-c2c3ccc(=[N+](C)C)cc-3oc3cc(N(C)C)ccc23)cc1.CC(=O)[O-]", "note": "[compound 4, N-(9-(4-Acetamidophenyl)-6-(dimethylamino)-3H-xanthen-3-ylidene)-N-methylmethanaminium acetate]", "values": [
      {"measurement": "fluorescence maximum", "setting": "[1]", "result": 572, "unit": "nm"},
      {"measurement": "absorption maximum", "setting": "[1]", "result": 553, "unit": "nm"},
      {"measurement": "molar absorption coefficient ε at absorption maximum", "setting": "[1]", "result": 35500, "unit": "M⁻¹ cm⁻¹"},
      {"measurement": "fluorescence quantum yield", "setting": "[1]", "result": 0.12}
    ]},
    {"molecule": "CN(C)c1ccncc1", "note": "[dimethylaminopyridine]", "values": [
      {"measurement": "increase in fluorescence intensity over time vs. no catalyst", "setting": "[5]; [6]", "result": "larger increase in fluorescence intensity was observed over time"}
    ]},
    {"molecule": "CCCCP(CCCC)CCCC", "note": "[tributylphosphine]", "values": [
      {"measurement": "fluorescence intensity relative to that without addition of catalyst", "setting": "[5]; 5 minutes after addition, compound 3 1 μM, catalyst 10 mM, NMD 0.1M, PBS pH 7.4, 25° C.", "result": "about 5 times"},
      {"measurement": "increase in reaction rate relative to reaction without catalyst", "setting": "[5]; compared with rate at start of reaction without catalyst", "result": "about 5.5 times"},
      {"measurement": "increase in fluorescence intensity over time vs. no catalyst", "setting": "[5]; [6]", "result": "larger increase in fluorescence intensity was observed over time"}
    ]}
  ]
}
